Laboratory results taken from ChEMBL document CHEMBL3352057, “Novel fluorinated pyrrolo[1,2-a]pyrazine-2,6-dione derivatives: synthesis and anticonvulsant evaluation in animal models of epilepsy” (Bioorg Med Chem, 2014).
Calls of active or inactive are those of the source. No cut-off for these calls is given here.

Tests used:
Mus musculus [1] = assay: Anticonvulsant activity in ip dosed albino CF1 mouse assessed as protection against 32 mA current-induced seizures; type: functional
[2] = Protective index, ratio of TD50 for neurotoxicity in ip dosed albino CF1 mouse to ED50 for anticonvulsant activity in ip dosed MES albino CF1 mouse model; type: toxicity, organism-based; details: in vivo, read-out: Ratio TD50/ED50
Mus musculus [3] = assay: Anticonvulsant activity in albino CF1 mouse assessed as protection against subcutaneous metrazol-induced seizures at 100 mg/kg, ip measured after 4 hrs; type: functional, organism-based; parameters: dose 100 mg/kg
Mus musculus [4] = assay: Neurotoxicity in albino CF1 mouse at 100 mg/kg, ip measured after 0.5 hr; type: toxicity, organism-based; parameters: dose 100 mg/kg, route intraperitoneal; details: in vivo
Rattus norvegicus [5] = assay: Anticonvulsant activity in Sprague-Dawley rat assessed as protection against maximal electroshock-induced seizures at 30 mg/kg, ip measured after 1 hr; type: functional, organism-based; parameters: dose 30 mg/kg
Mus musculus [6] = assay: Neurotoxicity in albino CF1 mouse at 100 mg/kg, ip measured after 0.25 hr; type: toxicity, organism-based; parameters: dose 100 mg/kg, route intraperitoneal; details: in vivo
Mus musculus [7] = assay: Neurotoxicity in albino CF1 mouse at 100 mg/kg, ip measured after 1 hr; type: toxicity, organism-based; parameters: dose 100 mg/kg, route intraperitoneal; details: in vivo
Mus musculus [8] = assay: Anticonvulsant activity in albino CF1 mouse assessed as protection against 32 mA current-induced seizures at 100 mg/kg, ip measured after 2 hrs; type: functional, organism-based; parameters: dose 100 mg/kg
Mus musculus [9] = assay: Anticonvulsant activity in albino CF1 mouse assessed as protection against 32 mA current-induced seizures at 100 mg/kg, ip measured after 4 hrs; type: functional, organism-based; parameters: dose 100 mg/kg
Rattus norvegicus [10] = assay: Anticonvulsant activity in Sprague-Dawley rat assessed as protection against maximal electroshock-induced seizures at 30 mg/kg, po measured after 1 hr; type: functional, organism-based; parameters: dose 30 mg/kg
Mus musculus [11] = assay: Anticonvulsant activity in ip dosed albino CF1 mouse assessed as protection against 6 Hz current-induced seizures measured as time to peak effect; type: functional
Mus musculus [12] = assay: Anticonvulsant activity in albino CF1 mouse assessed as protection against maximal electroshock-induced seizures at 100 mg/kg, ip measured after 0.5 hr; type: functional, organism-based; parameters: dose 100 mg/kg
Mus musculus [13] = assay: Anticonvulsant activity in ip dosed corneal kindled albino CF1 mouse seizure model assessed as time to peak effect; type: functional
Mus musculus [14] = assay: Anticonvulsant activity in albino CF1 mouse assessed as protection against 32 mA current-induced seizures at 100 mg/kg, ip measured after 0.25 hr; type: functional, organism-based; parameters: dose 100 mg/kg
Mus musculus [15] = assay: Anticonvulsant activity in albino CF1 mouse assessed as protection against 32 mA current-induced seizures at 100 mg/kg, ip measured after 1 hr; type: functional, organism-based; parameters: dose 100 mg/kg
Mus musculus [16] = assay: Anticonvulsant activity in albino CF1 mouse assessed as protection against maximal electroshock-induced seizures at 100 mg/kg, ip measured after 4 hrs; type: functional, organism-based; parameters: dose 100 mg/kg
Rattus norvegicus [17] = assay: Neurotoxicity in MES Sprague-Dawley rat model at 30 mg/kg, ip measured after 2 hrs; type: toxicity, organism-based; parameters: dose 30 mg/kg, route intraperitoneal; details: in vivo
Mus musculus [18] = assay: Neurotoxicity in 32 mA current-induced seizure albino CF1 mouse model at 100 mg/kg, ip measured after 4 hrs; type: toxicity, organism-based; parameters: dose 100 mg/kg, route intraperitoneal; details: in vivo
Mus musculus [19] = assay: Anticonvulsant activity in albino CF1 mouse assessed as protection against maximal electroshock-induced seizures at 100 mg/kg, ip measured after 1 hr; type: functional, organism-based; parameters: dose 100 mg/kg
Rattus norvegicus [20] = assay: Anticonvulsant activity in pilocarpine-induced status prevention Sprague-Dawley rat model assessed as weight change 24 hrs post-first stage 3 seizure of protected rat at 200 mg/kg, ip; type: functional; details: route intraperitoneal
Rattus norvegicus [21] = assay: Neurotoxicity in MES Sprague-Dawley rat model at 30 mg/kg, ip measured after 1 hr; type: toxicity, organism-based; parameters: dose 30 mg/kg, route intraperitoneal; details: in vivo
Rattus norvegicus [22] = assay: Neurotoxicity in MES Sprague-Dawley rat model at 30 mg/kg, ip measured after 4 hrs; type: toxicity, organism-based; parameters: dose 30 mg/kg, route intraperitoneal; details: in vivo
Mus musculus [23] = assay: Anticonvulsant activity in ip dosed albino CF1 mouse assessed as protection against maximal electroshock-induced seizures measured as time to peak effect; type: functional
Mus musculus [24] = assay: Neurotoxicity in albino CF1 mouse at 100 mg/kg, ip measured after 4 hrs; type: toxicity, organism-based; parameters: dose 100 mg/kg, route intraperitoneal; details: in vivo
Rattus norvegicus [25] = assay: Neurotoxicity in MES Sprague-Dawley rat model at 30 mg/kg, ip measured after 0.5 hr; type: toxicity, organism-based; parameters: dose 30 mg/kg, route intraperitoneal; details: in vivo
Mus musculus [26] = assay: Anticonvulsant activity in ip dosed corneal kindled albino CF1 mouse seizure model; type: functional
Rattus norvegicus [27] = assay: Anticonvulsant activity in Sprague-Dawley rat assessed as protection against maximal electroshock-induced seizures at 30 mg/kg, po measured after 0.5 hr; type: functional, organism-based; parameters: dose 30 mg/kg
Rattus norvegicus [28] = assay: Anticonvulsant activity in Sprague-Dawley rat assessed as protection against maximal electroshock-induced seizures at 30 mg/kg, ip measured after 0.5 hr; type: functional, organism-based; parameters: dose 30 mg/kg
Mus musculus [29] = assay: Anticonvulsant activity in ip dosed albino CF1 mouse assessed as protection against subcutaneous metrazol-induced seizures; type: functional
Mus musculus [30] = assay: Anticonvulsant activity in albino CF1 mouse assessed as protection against 32 mA current-induced seizures at 100 mg/kg, ip measured after 0.5 hr; type: functional, organism-based; parameters: dose 100 mg/kg
Rattus norvegicus [31] = assay: Anticonvulsant activity in Sprague-Dawley rat assessed as protection against maximal electroshock-induced seizures at 30 mg/kg, ip measured after 0.25 hr; type: functional, organism-based; parameters: dose 30 mg/kg
Rattus norvegicus [32] = assay: Neurotoxicity in MES Sprague-Dawley rat model at 30 mg/kg, po measured after 2 hrs; type: toxicity, organism-based; parameters: dose 30 mg/kg, route oral; details: in vivo
Rattus norvegicus [33] = assay: Neurotoxicity in MES Sprague-Dawley rat model at 30 mg/kg, po measured after 0.5 hr; type: toxicity, organism-based; parameters: dose 30 mg/kg, route oral; details: in vivo
Rattus norvegicus [34] = assay: Neurotoxicity in MES Sprague-Dawley rat model at 30 mg/kg, ip measured after 0.25 hr; type: toxicity, organism-based; parameters: dose 30 mg/kg, route intraperitoneal; details: in vivo
Mus musculus [35] = assay: Neurotoxicity in 32 mA current-induced seizure albino CF1 mouse model at 100 mg/kg, ip measured after 0.5 hr; type: toxicity, organism-based; parameters: dose 100 mg/kg, route intraperitoneal; details: in vivo
Mus musculus [36] = assay: Neurotoxicity in 32 mA current-induced seizure albino CF1 mouse model at 100 mg/kg, ip measured after 1 hr; type: toxicity, organism-based; parameters: dose 100 mg/kg, route intraperitoneal; details: in vivo
Rattus norvegicus [37] = assay: Neurotoxicity in MES Sprague-Dawley rat model at 30 mg/kg, po measured after 4 hrs; type: toxicity, organism-based; parameters: dose 30 mg/kg, route oral; details: in vivo
Mus musculus [38] = assay: Neurotoxicity in 32 mA current-induced seizure albino CF1 mouse model at 100 mg/kg, ip measured after 0.25 hr; type: toxicity, organism-based; parameters: dose 100 mg/kg, route intraperitoneal; details: in vivo
Rattus norvegicus [39] = assay: Anticonvulsant activity in Sprague-Dawley rat assessed as protection against maximal electroshock-induced seizures at 30 mg/kg, po measured after 4 hrs; type: functional, organism-based; parameters: dose 30 mg/kg
Rattus norvegicus [40] = assay: Neurotoxicity in MES Sprague-Dawley rat model at 30 mg/kg, po measured after 0.25 hr; type: toxicity, organism-based; parameters: dose 30 mg/kg, route oral; details: in vivo
Rattus norvegicus [41] = assay: Anticonvulsant activity in Sprague-Dawley rat assessed as protection against maximal electroshock-induced seizures at 30 mg/kg, po measured after 2 hrs; type: functional, organism-based; parameters: dose 30 mg/kg
Mus musculus [42] = assay: Anticonvulsant activity in albino CF1 mouse assessed as protection against subcutaneous metrazol-induced seizures at 100 mg/kg, ip measured after 0.5 hr; type: functional, organism-based; parameters: dose 100 mg/kg
Rattus norvegicus [43] = assay: Neurotoxicity in MES Sprague-Dawley rat model at 30 mg/kg, po measured after 1 hr; type: toxicity, organism-based; parameters: dose 30 mg/kg, route oral; details: in vivo
[44] = Neurotoxicity in ip dosed albino CF1 mouse; type: toxicity, organism-based; details: in vivo
Rattus norvegicus [45] = assay: Anticonvulsant activity in Sprague-Dawley rat assessed as protection against maximal electroshock-induced seizures at 30 mg/kg, ip measured after 4 hrs; type: functional, organism-based; parameters: dose 30 mg/kg
Mus musculus [46] = assay: Neurotoxicity in 32 mA current-induced seizure albino CF1 mouse model at 100 mg/kg, ip measured after 2 hrs; type: toxicity, organism-based; parameters: dose 100 mg/kg, route intraperitoneal; details: in vivo
Rattus norvegicus [47] = assay: Anticonvulsant activity in pilocarpine-induced status prevention Sprague-Dawley rat model assessed as weight change 24 hrs post-first stage 3 seizure of non-protected rat at 200 mg/kg, ip measured after 0.5 hr; type: functional; details: route intraperitoneal
Mus musculus [48] = assay: Anticonvulsant activity in albino CF1 mouse assessed as protection against subcutaneous metrazol-induced seizures at 300 mg/kg, ip measured after 0.5 hr; type: functional, organism-based; parameters: dose 300 mg/kg
Rattus norvegicus [49] = assay: Anticonvulsant activity in Sprague-Dawley rat assessed as protection against maximal electroshock-induced seizures at 30 mg/kg, ip measured after 2 hrs; type: functional, organism-based; parameters: dose 30 mg/kg
[50] = Neurotoxicity in ip dosed albino CF1 mouse measured at 0.25 hr post dose; type: toxicity, organism-based; details: in vivo
Mus musculus [51] = assay: Anticonvulsant activity in albino CF1 mouse assessed as protection against maximal electroshock-induced seizures at 100 mg/kg, ip measured after 0.25 hr; type: functional, organism-based; parameters: dose 100 mg/kg
Rattus norvegicus [52] = assay: Anticonvulsant activity in Sprague-Dawley rat assessed as protection against maximal electroshock-induced seizures at 30 mg/kg, po measured after 0.25 hr; type: functional, organism-based; parameters: dose 30 mg/kg
Mus musculus [53] = assay: Neurotoxicity in albino CF1 mouse assessed as loss of righting reflex at 100 mg/kg, ip measured after 0.25 hr; type: toxicity, organism-based; parameters: dose 100 mg/kg, route intraperitoneal; details: in vivo
Mus musculus [54] = assay: Anticonvulsant activity in ip dosed albino CF1 mouse assessed as protection against maximal electroshock-induced seizures; type: functional

Structure (SMILES): Cl.O=C1NC(=O)[C@@H]2CCCN2[C@H]1c1cccc(C(F)(F)F)c1
- ED50 (Mus musculus [1]): 119 µmol/kg
- selectivity ratio [2]: 1.6
- Activity (Mus musculus [3]): inactive
- Activity (Mus musculus [4]): Non-toxic
- Activity (Rattus norvegicus [5]): inactive
- Activity (Mus musculus [6]): Toxic
- Activity (Mus musculus [7]): Non-toxic
- Activity (Mus musculus [8]): inactive
- Activity (Mus musculus [9]): inactive
- Activity (Rattus norvegicus [10]): inactive
- Time (Mus musculus [11]): 0.5 h
- Activity (Mus musculus [12]): inactive
- Time (Mus musculus [13]): 0.25 h
- Activity (Mus musculus [14]): Active
- Activity (Mus musculus [15]): inactive
- Activity (Mus musculus [16]): inactive
- Activity (Rattus norvegicus [17]): Non-toxic
- Activity (Mus musculus [18]): Non-toxic
- Activity (Mus musculus [19]): Active
- Activity (Rattus norvegicus [20]): -3.8 g
- Activity (Rattus norvegicus [21]): Non-toxic
- Activity (Rattus norvegicus [22]): Non-toxic
- Time (Mus musculus [23]): 0.25 h
- Activity (Mus musculus [24]): Non-toxic
- Activity (Rattus norvegicus [25]): Non-toxic
- ED50 (Mus musculus [26]): 116 µmol/kg
- Activity (Rattus norvegicus [27]): inactive
- Activity (Rattus norvegicus [28]): inactive
- ED50 (Mus musculus [29]): 218 µmol/kg
- Activity (Mus musculus [30]): Active
- Activity (Rattus norvegicus [31]): inactive
- Activity (Rattus norvegicus [32]): Non-toxic
- Activity (Rattus norvegicus [33]): Non-toxic
- Activity (Rattus norvegicus [34]): Non-toxic
- Activity (Mus musculus [35]): Non-toxic
- Activity (Mus musculus [36]): Non-toxic
- Activity (Rattus norvegicus [37]): Non-toxic
- Activity (Mus musculus [38]): Non-toxic
- Activity (Rattus norvegicus [39]): inactive
- Activity (Rattus norvegicus [40]): Non-toxic
- Activity (Rattus norvegicus [41]): inactive
- Activity (Mus musculus [42]): inactive
- Activity (Rattus norvegicus [43]): Non-toxic
- TD50 [44]: 269 µmol/kg
- Activity (Rattus norvegicus [45]): inactive
- Activity (Mus musculus [46]): Non-toxic
- Activity (Rattus norvegicus [47]): -25 g
- Activity (Mus musculus [48]): Active
- Activity (Rattus norvegicus [49]): inactive
- TD50 at 0.25 h [50]: 166 µmol/kg
- Activity (Mus musculus [51]): Active
- Activity (Rattus norvegicus [52]): inactive
- Activity (Mus musculus [53]): Toxic
- ED50 (Mus musculus [54]): 165 µmol/kg
